{"source": "paper PMC10286969", "about": "“Characterization of the biochemical activity and tumor-promoting role of the dual protein methyltransferase METL-13/METTL13 in Caenorhabditis elegans” (PLOS ONE, 2023)", "target": "T1, MT13-C (C-terminal MTase domain fragment of METL-13) (Caenorhabditis elegans, UniProt Q17539)", "T1 construct": "C-terminal methyltransferase fragment, residues 213-656, N-terminal His6 tag (pET28a), expressed in E. coli, Ni-NTA purified", "T1 sequence (Q17539 213-656)": "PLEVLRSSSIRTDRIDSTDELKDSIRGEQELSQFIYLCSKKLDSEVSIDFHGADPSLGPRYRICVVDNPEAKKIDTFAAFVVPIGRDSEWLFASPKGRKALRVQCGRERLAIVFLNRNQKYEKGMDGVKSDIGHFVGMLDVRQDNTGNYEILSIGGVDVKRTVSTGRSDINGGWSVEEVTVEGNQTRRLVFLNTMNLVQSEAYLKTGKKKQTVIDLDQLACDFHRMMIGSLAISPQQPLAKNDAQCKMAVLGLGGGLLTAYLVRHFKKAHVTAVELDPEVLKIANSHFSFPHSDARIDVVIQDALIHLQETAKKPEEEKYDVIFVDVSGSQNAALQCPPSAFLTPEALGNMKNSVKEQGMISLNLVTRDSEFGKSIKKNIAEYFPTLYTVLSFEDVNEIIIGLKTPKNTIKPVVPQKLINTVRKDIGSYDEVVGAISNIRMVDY", "experiment": "in vitro methyltransferase assay, SDS-PAGE fluorography", "type": "biochemical", "settings": "methyl donor; protein substrate recombinant human eEF1A1 with C-terminal His tag (N-terminal G2 methylation); labelled compound (tritium); pH 7.4, 100 mM NaCl, 10% glycerol, 30 °C, 1 h", "data": [{"smiles": "C[S+](CC[C@H](N)C(=O)O)C[C@H]1O[C@@H](n2cnc3c(N)ncnc32)[C@H](O)[C@@H]1O", "note": "(stereo partly shown) [[^3H]-AdoMet]", "values": [{"measurement": "in vitro methyltransferase assay, SDS-PAGE fluorography", "value": "C. elegans MT13-N or MT13-C as enzymes, human eEF1A1 as the substrate and [^3H]AdoMet"}]}]}
